Where only a bound is given, the exact number is not on record here.

The first assay relates to HBV. Briefly: HepAD38 antiviral assay: reduction of viral product accumulation (virion DNA by qPCR, HBsAg or HBeAg by ELISA). The format is cell-based, hepatitis B virus. The conditions noted are these: HepAD38 cells, five days after compound addition; concentration reducing viral product accumulation by 50% relative to no drug controls; read-out: HepAD38 EC50. The protocol:
Methods: HepAD38 cells are maintained as previously reported (Ladner et al, Antimicrob. Agents Chemother. 1997, […], 1715). Briefly, cells are passaged upon attaining confluency in DMEM/F12 media in the presence of 10% FBS, Penn/Strep, 250 μg/mL G418, and 1 ug/ml tetracycline. Novel compounds are screened by first washing cells three times with PBS to remove tetracycline, and plating in 96 well plates at 35,000 cells/well. Compounds dissolved in DMSO are then diluted 1:200 into wells containing cells. Five days after compound addition, material is harvested for analysis. For an extended 8 day analysis, cells are plated and treated as described above, but media and compound are refreshed on d2 and d5 post initial treatment.
On harvest day, virion DNA is obtained by lysing with Sidestep Lysis and Stabilization Buffer and then quantified via quantitative real time PCR. Commercially available ELISA kits are used to quantitate the viral proteins HBsAg (Alpco) or HbeAg (US Biological) by following the manufacturer's recommended protocol after diluting samples to match the linear range of their respective assays. Irrespective of readout, compound concentrations that reduce viral product accumulation in the cell lysates or supernatants by 50% relative to no drug controls (EC50) are reported; EC50 ranges are as follows: A<0.1 μM; B 0.1-0.4 μM; C>0.4 μM.
Turning to `COC(=O)C1=CON(Cc2ccccc2)C1[C@]1(O)CC2CC[C@@H](C1)[C@H]2S(=O)(=O)c1cc(C(=O)Nc2cc(F)c(F)c(F)c2)ccc1Cl` (stereo partly shown) [Example 216], the EC50 was > 400 nM. Turning to `C[C@]1(O)C2CCC1C[C@H](S(=O)(=O)c1cc(C(=O)Nc3cc(F)c(F)c(F)c3)ccc1Cl)C2` [Example 251], the half-maximal effective concentration (EC50) was > 400 nM. For the compound `CC(C)(C)OC(=O)N1C2CCC1CC(S(=O)(=O)c1cc(C(=O)Nc3cc(F)c(F)c(F)c3)ccc1Cl)C2` (stereo not shown) [Example 119], the EC50 is > 400 nM. On to `O=C(Nc1cc(F)c(F)c(F)c1)c1ccc(Cl)c(S(=O)(=O)C2CC3O[C@H]3C2)c1` (stereo partly shown) [Example 86], for which the EC50 is > 400 nM.

Still in this assay, the particulars now being: Hepatitis B virus, HePAD38, 120 h, HepAD38 cells, five days after compound addition; concentration reducing viral product accumulation by 50% relative to no drug controls; read-out: HepAD38 EC50.
As to `O=C(Nc1cc(F)c(F)c(F)c1)c1ccc(Cl)c(S(=O)(=O)CC2CC3CCC2C(O)C3O)c1` (stereo not shown) [Example 243], the EC50 is < 100 nM. Regarding `N#Cc1cc(NC(=O)c2ccc(Cl)c(S(=O)(=O)[C@H]3CC[C@H](O)CC3)c2)ccc1F` [Example 41], the 50% effective concentration (EC50) is > 400 nM. For the compound `C[C@]1(O)C(=O)O[C@H](CS(=O)(=O)c2cc(C(=O)Nc3cc(F)c(F)c(F)c3)ccc2Cl)[C@H]1O` [Example 99], the EC50 is > 400 nM. As to `O=C(Nc1cc(F)c(F)c(F)c1)c1ccc(Cl)c(S(=O)(=O)[C@H]2C3CC[C@H]2C[C@@](O)(CO)C3)c1` [Example 164], the EC50 is < 100 nM. Consider `N#CC1CON(Cc2ccccc2)C1C1=C[C@@H]2CCC(C1)[C@@H]2S(=O)(=O)c1cc(C(=O)Nc2cc(F)c(F)c(F)c2)ccc1Cl` (stereo partly shown) [Example 210], for which the concentration giving a half-maximal response (EC50) was > 400 nM. The same measure, in the same setting: the value for `O=C(Nc1cc(F)c(F)c(F)c1)c1ccc(Cl)c(S(=O)(=O)[C@H]2C3CC[C@H]2C[C@](O)(C(=O)O)C3)c1` [Example 131] was > 400 nM; that for `O=C(Nc1cc(F)c(F)c(F)c1)c1ccc(Cl)c(S[C@H]2CC[C@H](O)CC2)n1` [Example 61] was > 400 nM; that for `O=C1CC2CC[C@@H](C1)[C@@H]2CS(=O)(=O)c1cc(C(=O)Nc2cc(F)c(F)c(F)c2)ccc1Cl` [Example 179] was < 100 nM.

For the compound `CCOC(=O)CS(=O)(=O)c1cc(C(=O)Nc2cc(F)c(F)c(F)c2)ccc1Cl` [Example 77], the EC50 is > 400 nM. Same read-out and setting: the value for `CC(C)(C)OC(=O)N1CCC(S(=O)(=O)c2cc(C(=O)Nc3cc(F)c(F)c(F)c3)ccc2Cl)CC1` [Example 59] was < 100 nM; that for `COC(=O)[C@@H](NC[C@]1(O)C2CCC1C[C@@H](S(=O)(=O)c1cc(C(=O)Nc3cc(F)c(F)c(F)c3)ccc1Cl)C2)C(C)C` [Example 339] was > 400 nM; that for `O=C(Nc1cc(F)c(F)c(F)c1)c1ccc(Cl)c(S(=O)(=O)[C@H]2C3CC[C@H]2[C@@H](CO)C(=O)C3)c1` [Example 163] was 100 to 400 nM. Regarding `C=C1CC2CCC(C1)C2Sc1cc(C(=O)Nc2cc(F)c(F)c(F)c2)ccc1Cl` (stereo not shown) [Example 39], the EC50 was > 400 nM. Take `Cc1c(NC(=O)c2ccc(Cl)c(S(=O)(=O)[C@]3(C)CC[C@H](O)CC3)c2)cc(F)c(F)c1F` [Example 18]: the EC50 lay within 100 to 400 nM. For the compound `O=C(Nc1cc(F)c(F)c(F)c1)c1ccc(Cl)c(S(=O)(=O)[C@H]2C3C[C@@H]4C[C@H](C3)C[C@@H]2C4)c1` [Example 176], the EC50 was > 400 nM.

Regarding `C[C@]1(O)CC[C@H](S(=O)(=O)c2cc(C(=O)Nc3cc(F)c(F)c(F)c3)ccc2Cl)CC1` [Example 23], the EC50 is 100 to 400 nM. As to `O=C(Nc1cc(F)c(F)c(F)c1)c1ccc(Cl)c(S(=O)(=O)Cc2ccccc2)c1` [Example 27], the EC50 is > 400 nM. Take `CC([C@H]1C[C@@H](O)C1)S(=O)(=O)c1cc(C(=O)Nc2cc(F)c(F)c(F)c2)ccc1Cl` (stereo partly shown) [Example 117]: the EC50 lay within 100 to 400 nM. For the compound `CS(=O)(=O)NC[C@@]1(O)CC2CC[C@@H](C1)[C@H]2S(=O)(=O)c1cc(C(=O)Nc2cc(F)c(F)c(F)c2)ccc1Cl` [Example 186], the EC50 is 100 to 400 nM.

On to `COc1cc(NC(=O)c2ccc(Cl)c(S(=O)(=O)[C@H]3CC[C@H](O)CC3)c2)ccc1F` [Example 26], for which the EC50 was > 400 nM. For the compound `O=C(Nc1cc(F)c(F)c(F)c1)c1ccc(Cl)c(S(=O)(=O)[C@H]2C3CCC2C[C@H](CN2CCOCC2)C3)c1` [Example 337], the EC50 lay in the range of 100 to 400 nM. Regarding `O=C(Nc1cc(F)c(F)c(F)c1)c1ccc(Cl)c(S(=O)(=O)[C@H]2C3CC[C@H]2C[C@]2(COS(=O)O2)C3)c1` (stereo partly shown) [Example 263], the EC50 is < 100 nM.

Consider `O=C(Nc1cc(F)c(F)c(F)c1)c1ccc(Cl)c(S(=O)(=O)[C@@H]2C3CC[C@H]2C[C@](O)(CO)C3)c1` [Example 137], for which the EC50 lay within 100 to 400 nM.

For `O=C(Nc1cc(F)c(F)c(F)c1)c1ccc(Cl)c(S(=O)(=O)C2(CCO)CCCCC2)c1` [Example 89], the EC50 was 100 to 400 nM.

On to `O=C(Nc1cc(F)c(F)c(F)c1)c1ccc(Cl)c(S(=O)(=O)C[C@H]2C3CCC2C[C@H](O)C3)c1` [Example 194], for which the EC50 is < 100 nM. As for `CC[C@]1(O)CC2CC[C@@H](C1)[C@H]2S(=O)(=O)c1cc(C(=O)Nc2cc(F)c(F)c(F)c2)ccc1Cl` [Example 268], the EC50 lay within 100 to 400 nM.

In the case of `CC(C)(C)[Si](C)(C)O[C@H]1C2CCC1C[C@@H](S(=O)(=O)c1cc(C(=O)Nc3cc(F)c(F)c(F)c3)ccc1Cl)C2` [Example 195], the EC50 was > 400 nM. On to `COC(=O)N(C)C[C@@H]1CC2CC[C@@H](C1)[C@H]2S(=O)(=O)c1cc(C(=O)Nc2cc(F)c(F)c(F)c2)ccc1Cl` [Example 335], for which the EC50 was < 100 nM. On the same count and under the same terms, as for `N[C@@H](Cc1ccccc1)C(=O)NC[C@]1(O)C2CCC1C[C@@H](S(=O)(=O)c1cc(C(=O)Nc3cc(F)c(F)c(F)c3)ccc1Cl)C2` [Example 366], the figure is 100 to 400 nM; as for `NC[C@]1(O)C2CCC1C[C@@H](S(=O)(=O)c1cc(C(=O)Nc3cc(F)c(F)c(F)c3)ccc1Cl)C2` [Example 347], 100 to 400 nM; as for `CC(C)(CO)S(=O)(=O)c1cc(C(=O)Nc2cc(F)c(F)c(F)c2)ccc1Cl` [Example 124], 100 to 400 nM.

With `[N-]=[N+]=Nc1ccc(C(=O)Nc2cc(F)c(F)c(F)c2)cc1S(=O)(=O)[C@H]1C2CC[C@H]1C[C@]1(CO1)C2` [Example 145], the EC50 was 100 to 400 nM. Regarding `O=C(Nc1cc(F)c(F)c(F)c1)c1ccc(Cl)c(S(=O)(=O)[C@H]2C3CC[C@H]2C[C@](O)(COC/C=N/O)C3)c1` [Example 320], the EC50 is < 100 nM. On the same count and under the same terms, as for `O=C(Nc1cc(F)c(F)c(F)c1)c1ccc(Cl)c(S(=O)(=O)[C@H]2CC[C@H](F)CC2)c1` [Example 21], the figure is 100 to 400 nM; as for `O=C(Nc1cc(F)c(F)c(F)c1)c1ccc(Cl)c(S(=O)(=O)[C@H]2CC3CCC(C2)[C@]3(O)CN2CCOCC2)c1` [Example 336], < 100 nM. `COC(=O)C1OCN(Cc2ccccc2)[C@]12CC1CC[C@@H](C2)[C@H]1S(=O)(=O)c1cc(C(=O)Nc2cc(F)c(F)c(F)c2)ccc1Cl` (stereo partly shown) [Example 212]: the EC50 is > 400 nM. As to `O=C(O)/C=C/[C@]1(O)CC2CC[C@@H](C1)[C@H]2S(=O)(=O)c1cc(C(=O)Nc2cc(F)c(F)c(F)c2)ccc1Cl` [Example 225], the EC50 is > 400 nM. Turning to `O=C(Nc1cc(F)c(F)c(F)c1)c1ccc(Cl)c(S(=O)(=O)[C@H]2C3CC[C@H]2C[C@](O)(/C=N/OCc2ccc(-c4ccccc4)cc2)C3)c1` [Example 224], the EC50 was in the range of 100 to 400 nM.

Turning to `N#Cc1cc(NC(=O)c2ccc(Cl)c(S(=O)(=O)[C@H]3CC[C@H](O)CC3)c2)ccn1` [Example 56], the EC50 was > 400 nM.

Source of the values: patent US10538532B2, “Hepatitis B antiviral agents” (ENANTA PHARMACEUTICALS, INC., priority 2016, dated 2020).
